From patent US20140228286A1, “SPECIFIC PDE4B-INHIBITORS FOR THE TREATMENT OF DIABETES MELLITUS” (BOEHRINGER INGELHEIM INTERNATIONAL GMBH, priority 2013, published 2014)

Experiments:
PDE4B = molecular target: T1, PDE4B (Homo sapiens, UniProt Q07343); assay: PDE4B Scintillation Proximity (SPA) Assay; format: biochemical; details: PDE4B active site fragment amino acids 152-484; [3H]cAMP; 30° C., one hour; read-out: Experimentally determined IC50-value for PDE4B inhibition
T1 construct: active site fragment comprising the amino acids 152-484
From the text: The IC50-values of the compounds of the invention (Examples 1.1 to 1.47) with respect to their PDE4B-inhibiting ability have been determined with a Scintillation Proximity (SPA) Assay (GE Healthcare, No. TRKQ7090). The Scintillation Proximity (SPA) Assay is based on the detection of the different affinities of the cyclic 3′-5′adenosine monophosphate (cAMP, low affinity) and the linear 5′-adenosine monophosphate (AMP, high affinity) to yttrium-silicate-scintillator beads. The cAMP-specific phosphodiesterase (PDE) PDE4B cleaves the 3′-phosphodiester bond of the tritium-labelled-[^3H]cAMP to the [^3H]5′-AMP. This [^3H]5′-AMP associates with the scintillator beads because of their higher affinity and causes scintillations (light flashes) which can be measured in a Wallac Microbeta Scintillation Counter.
10 μl of a [^3H]cAMP-solution (0.05 μCi in H2O, 10-30 Ci/mmol) are added to 89 μl of a PDE4B-enzyme-solution (active site fragment comprising the amino acids 152-484; 0.15-0.18 ng) in assay buffer (50 mM Tris HCl pH 7.5; 8.3 mM MgCl2; 1,7 mM ethylene glyclol tetraacetic acid (EGTA); 0.25 mg/ml bovine serum albumin (BSA)) and this mixture is incubated at 30° C. for one hour
a) without the compound to be tested (in the presence of 1 μl dimethylsulfoxide (DMSO), corresponding to 1% DMSO) and b) in the presence of the compound to be tested in a concentration of 125 μM, 25 μM, 5 μM, 1 μM, 200 nM, 40 nM, 8 nM, 1.6 nM, 0.32 nM, 0.064 nM, 0.0128 nM (dilution series in 5er-steps beginning from 125 μM until 0.0128 nM, in the presence of 1% DMSO).
After this incubation the reaction is stopped by the addition of 50 μl of bead-solution (500 mg beads/35 ml H2O, 18 mM zinc sulfate). In the following 45 minutes the beads have the opportunity to form a sediment. After that the scintillations are measured in the scintillation counter. If the tested compound is able to inhibit the enzymatic activity of the PDE4B-enzyme, less [^3H]AMP depending on the concentration of the tested compound is produced and less scintillations are measurable. […] The IC50-value stands for the compound concentration at which the PDE4B enzyme activity is inhibited to a half maximal value. Therefore the lower the IC50-value is the better is the PDE4B inhibition.

Sprague Dawley (SD) rats = assay: Oral glucose tolerance test in overnight fasted male Sprague Dawley rats; format: in vivo, rat; details: 60 min before oral glucose load 2 g/kg, versus vehicle control
Experimental: An oral glucose tolerance test is performed in overnight fasted male Sprague Dawley (SD) rats (RjHan:SD), with a weight of 320-350 g. A pre-dose blood sample is obtained by tail bleed. Blood glucose is measured with a glucometer, and the animals are randomized for blood glucose (n=6/group). Subsequently, the groups receive a single oral administration of either vehicle alone (0.5% aqueous hydroxyethyl-cellulose) or vehicle containing one of the PDE4 inhibitors. The animals receive an oral glucose load (2 g/kg) 60 min after compound administration. Blood glucose is measured in tail blood 15 min, 30 min, 60 min, 90 min, and 120 min after the glucose challenge. Glucose excursion is quantified by calculating the reactive glucose AUC (area under the curve). The data are presented as mean±SEM (standard error of mean). The two-sided unpaired Student t-test is used for statistical comparison of the control group and the active groups.
“Cpd. A” is the PDE4 inhibitor Example 1.35 at a dose of 1 and 3 mg/kg. “Cpd. B” is the PDE4 inhibitor Example 1.46 at a dose of 1 and 3 mg/kg. P values versus control are indicated by symbols above the bars (*, p<0.05). Cpd. A (=Example 1.35) reduces glucose excursion by 13.2 (p=0.09) and 15.0% (p=0.11) with a dose of 1 and 3 mg/kg, respectively. Cpd. […] Cpd.

T1 sequence (Q07343 324-656): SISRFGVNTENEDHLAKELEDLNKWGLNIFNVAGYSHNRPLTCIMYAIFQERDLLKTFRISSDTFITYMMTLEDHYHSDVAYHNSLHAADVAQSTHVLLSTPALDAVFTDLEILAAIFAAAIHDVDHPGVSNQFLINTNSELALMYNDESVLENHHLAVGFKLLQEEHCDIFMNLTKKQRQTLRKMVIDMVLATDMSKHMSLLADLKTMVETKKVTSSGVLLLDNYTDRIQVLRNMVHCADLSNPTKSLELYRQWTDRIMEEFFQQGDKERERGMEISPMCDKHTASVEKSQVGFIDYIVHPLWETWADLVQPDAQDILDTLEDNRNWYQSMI

IC50 (PDE4B) | SMILES | reduces glucose excursion (reactive glucose AUC) (Sprague Dawley (SD) rats; single oral dose 1 mg/kg) | reduces glucose excursion (reactive glucose AUC) (Sprague Dawley (SD) rats; single oral dose 3 mg/kg)
3.9 nM | [O-][S+]1CCc2nc(N3CCC(Oc4ccc(Cl)cc4)CC3)nc(NC3CCOCC3)c21 (stereo not shown) [Example 1.35, {2-[4-(4-chlorophenoxy)-piperidin-1-yl]-5-oxo-6,7-dihydro-5H-5λ^4-thieno[3,2-d]pyrimidin-4-yl}-(tetrahydropyran-4-yl)-amine] | 13.2% | 15.0%
54 nM | CN1C[C@@H](Nc2nc(N3CCC(c4ccc(Cl)cc4)CC3)nc3c2S(=O)(=O)CC3)CCC1=O [Example 1.45, (S)-5-{2-[4-(4-chlorophenyl)-piperidin-1-yl]-5,5-dioxo-6,7-dihydro-5H-5λ^6-thieno[3,2-d]pyrimidin-4-ylamino}-1-methylpiperidin-2-one] |  | 
 | [O-][S+]1CCc2nc(N3CCC(c4ncc(Cl)cn4)CC3)nc(NC3(CO)CCC3)c21 (stereo not shown) [Example 1.46, (1-{2-[4-(5-Chloro-pyrimidin-2-yl)-piperidin-1-yl]-5-oxo-6,7-dihydro-5H-5λ^4-thieno[3,2-d]pyrimidin-4-yl-amino}-cyclobutyl)-methanol] | 26.8% | 18.4%
4.3 nM | [O-][S+]1CCc2nc(N3CCC(c4ccc(Cl)cc4)CC3)nc(NC3(CO)CCC3)c21 (stereo not shown) [Example 1.47, (1-{2-[4-(4-Chloro-phenyl)-piperidin-1-yl]-5-oxo-6,7-dihydro-5H-5λ^4-thieno[3.2-d]pyrimidin-4-yl-amino}-cyclobutyl)-methanol] |  | 
